Columns and labels:
[1] = Study 1: single-dose pharmacokinetics in mild or moderate hepatic impairment and matched healthy controls; type: in vivo, human; conditions: for AUC(0-inf) / AUC(0-t) / Cmax / half-life / Tmax: both sexes, human, plasma, po, 20 mg, vilazodone 20 mg single oral dose
Description: (§1) The pharmacokinetics, tolerability, and safety of vilazodone were investigated in two separate trials involving participants with hepatic impairment, compared with healthy controls. An Open-label, parallel-group, single-dose pharmacokinetic studies, a single, oral dose of vilazodone (20 mg with increased hardness) was administered to participants with mild, moderate, or severe hepatic impairment or individually matched controls. Outcomes included pharmacokinetic parameters and safety (vital signs, clinical laboratory evaluations, ECG, and adverse events [AEs]). Plasma samples were analyzed using validated LC/MS/MS methods.
(§2) Data from two, open-label, parallel-group, single-dose pharmacokinetic studies investigated single-dose vilazodone (20 mg with increased hardness) in participants with hepatic impairment and normal hepatic function. The first study (Study 1) included participants with mild or moderate hepatic impairment and healthy controls. The second study (Study 2) included participants with severe hepatic impairment or healthy participants. These studies were both designed in accordance with the FDA guidance for evaluation of pharmacokinetics in the presence of hepatic impairment. The differences between the study protocols were minimal, so both methodologies are described together, with any differences noted below.
(§3) Participants were men and women, 18 to 70 years of age, with a body mass index (BMI) of 18-42 kg/m^2. Women were not pregnant or breastfeeding and agreed to utilize a medically accepted form of contraception during the study (as did men in Study 2). In Study 2, participants were also required to be non-smokers or light smokers (fewer than 10 cigarettes per day; there was no stipulation in Study 1) and to have a sitting pulse rate of 50-100 bpm at screening and prior to dosing on Day 1. […] Each healthy control was matched with a hepatically impaired participant. Control participants in the Study 1 were matched with a hepatically impaired individual according to age (±10 years), sex, and BMI (±15%). Control participants in Study 2 were matched with a hepatically impaired individual according to age (±5 years), sex, and weight (±10%).
(§4) Participants with hepatic dysfunction were classified according to the Child-Pugh hepatic dysfunction staging system as having mild (5-6 points) or moderate (7-9 points) hepatic impairment (Study 1), or severe impairment (10-15 points; Study 2). Participants with severe impairment also had chronic liver disease and/or compensated cirrhosis, as evidenced by liver biopsy, computerized tomography or ultrasonic evidence of hepatic fibrosis, clinical evidence of chronic liver disease, or a colloid shift on a liver-spleen scan. Exclusion criteria included the following: a clinical diagnosis or history of depression; treatment with antidepressants, anxiolytics, psychoactive medications (including herbal supplements), other serotonergic drugs, or drugs that inhibit CYP3A4 (eg, ketoconazole, diltiazem, macrolide antibiotics); a hypersensitivity to vilazodone or other SSRIs or 5-HT agonists; history or evidence of alcohol or substance abuse, cancer, human immunodeficiency virus, hepatitis B (Study 1 and healthy controls, both studies) hepatitis C (healthy controls, both studies), or other clinically significant illnesses or medical conditions. Participants with severe hepatic impairment were excluded if they had bleeding diathesis, advanced ascites requiring large-volume paracentesis within 1 week of dosing, esophageal bleeding within the previous 8 weeks, history of portosystemic shunt or hepatic transplant, or evidence of hepatic encephalopathy, hepatorenal syndrome, or other evidence of rapid hepatic deterioration.
(§5) Participants were not allowed to have previously taken vilazodone or participated in any clinical investigation requiring repeated blood draws within 60 days of dosing, or donated blood or plasma within 60 or 30 days, respectively.

CYP3A4 = CYP3A4 (Homo sapiens, UniProt P08684); conditions: in vitro studies; cited from earlier work
[2] = Study 2: single-dose pharmacokinetics in severe hepatic impairment and matched healthy controls; conditions: for AUC(0-t) / AUC(0-inf) / Cmax / Tmax / half-life: both, human, po, 20 mg; for AUC(0-inf): AUC0-∞; for AUC(0-inf) / Cmax / Tmax / half-life: vilazodone 20 mg single oral dose
Description: as §1, §2, §3, §4, §5

serotonin reuptake site = serotonin reuptake site (Homo sapiens, UniProt P31645); conditions: cited from earlier work
dopamine reuptake site = dopamine reuptake site (Homo sapiens, UniProt Q01959); conditions: cited from earlier work
[3] = Mild impairment/control, 20 mg single dose
[4] = Moderate impairment/control, 20 mg single dose
[5] = Control matched to Mild Impairment n = 8
[6] = Control matched to Moderate Impairment n = 8
[7] = Severe impairment/control, 20 mg single dose, participants who vomited excluded
[8] = plasma, Control matched to Severe Impairment n = 8
[9] = plasma, Severe Impairment n = 4 (who did not vomit)

Chain of CYP3A4 (P08684 whole entry): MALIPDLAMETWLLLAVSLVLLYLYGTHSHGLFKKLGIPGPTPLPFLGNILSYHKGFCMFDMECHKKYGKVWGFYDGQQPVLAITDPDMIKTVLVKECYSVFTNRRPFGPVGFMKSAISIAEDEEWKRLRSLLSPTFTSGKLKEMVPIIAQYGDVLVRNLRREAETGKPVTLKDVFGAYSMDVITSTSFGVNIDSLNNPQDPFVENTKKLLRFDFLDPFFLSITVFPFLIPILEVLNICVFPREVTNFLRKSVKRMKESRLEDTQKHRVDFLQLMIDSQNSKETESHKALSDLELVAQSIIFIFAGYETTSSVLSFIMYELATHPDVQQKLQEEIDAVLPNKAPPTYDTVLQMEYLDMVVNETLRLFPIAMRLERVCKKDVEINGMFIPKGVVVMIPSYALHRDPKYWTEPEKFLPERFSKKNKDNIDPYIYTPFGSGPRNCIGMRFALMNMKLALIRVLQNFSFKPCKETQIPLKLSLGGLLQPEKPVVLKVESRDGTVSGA
Chain of dopamine reuptake site (Q01959 whole entry): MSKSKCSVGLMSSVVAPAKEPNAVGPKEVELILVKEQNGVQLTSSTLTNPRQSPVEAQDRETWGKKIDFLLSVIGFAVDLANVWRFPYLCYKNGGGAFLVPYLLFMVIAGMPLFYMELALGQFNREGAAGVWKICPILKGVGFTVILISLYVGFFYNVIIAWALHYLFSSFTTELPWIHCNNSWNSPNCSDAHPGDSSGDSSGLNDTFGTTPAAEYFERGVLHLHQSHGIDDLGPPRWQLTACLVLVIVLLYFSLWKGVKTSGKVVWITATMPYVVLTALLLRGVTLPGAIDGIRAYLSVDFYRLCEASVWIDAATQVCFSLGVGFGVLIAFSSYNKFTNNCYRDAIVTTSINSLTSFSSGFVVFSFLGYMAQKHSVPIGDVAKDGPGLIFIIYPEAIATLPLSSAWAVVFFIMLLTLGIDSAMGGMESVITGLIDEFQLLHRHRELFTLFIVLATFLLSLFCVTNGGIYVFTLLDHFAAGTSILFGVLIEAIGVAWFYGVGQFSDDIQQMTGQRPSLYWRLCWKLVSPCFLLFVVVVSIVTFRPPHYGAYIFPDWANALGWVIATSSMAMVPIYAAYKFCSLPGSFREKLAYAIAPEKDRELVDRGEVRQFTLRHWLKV
Chain of serotonin reuptake site (P31645 whole entry): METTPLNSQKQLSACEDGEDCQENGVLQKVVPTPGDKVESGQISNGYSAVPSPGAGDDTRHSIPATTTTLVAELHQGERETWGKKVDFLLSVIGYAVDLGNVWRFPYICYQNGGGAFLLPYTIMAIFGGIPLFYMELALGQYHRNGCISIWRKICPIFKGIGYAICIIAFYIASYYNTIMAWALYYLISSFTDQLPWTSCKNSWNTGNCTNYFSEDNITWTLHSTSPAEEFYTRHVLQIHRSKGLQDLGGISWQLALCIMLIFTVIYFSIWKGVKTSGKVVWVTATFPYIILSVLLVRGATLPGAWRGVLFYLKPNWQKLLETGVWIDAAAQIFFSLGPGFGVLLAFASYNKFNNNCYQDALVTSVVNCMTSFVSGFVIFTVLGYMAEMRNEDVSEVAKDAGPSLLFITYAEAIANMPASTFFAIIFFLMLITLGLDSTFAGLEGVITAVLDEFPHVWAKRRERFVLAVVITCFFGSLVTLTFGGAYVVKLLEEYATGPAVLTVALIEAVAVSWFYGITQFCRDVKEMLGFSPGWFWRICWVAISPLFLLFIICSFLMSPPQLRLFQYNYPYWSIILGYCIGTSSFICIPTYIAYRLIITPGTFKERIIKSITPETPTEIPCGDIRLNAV

## Cl.N#Cc1ccc2[nH]cc(CCCCN3CCN(c4ccc5oc(C(N)=O)cc5c4)CC3)c2c1 [Vilazodone, 1-[4-(5-cyanoindol-3-yl)butyl]-4-(2-carbamoyl-benzofuran-5-yl)-piperazine hydrochloride]
[1]; [3]
  AUC0-t, Ratio of Geometric Means (%): 97.7%
  AUC0-∞, Ratio of Geometric Means (%): 98.0%
  Cmax, Ratio of Geometric Means (%): 97.8%
[1]; [4]
  AUC0-t, Ratio of Geometric Means (%): 89.5%
  AUC0-∞, Ratio of Geometric Means (%): 90.5%
  Cmax, Ratio of Geometric Means (%): 97.2%
[1]; [5]
  AUC(0-inf): 945 ± 169 ng·h/mL
  AUC(0-t): 898 ± 168 ng·h/mL
  Cmax: 43.1 ± 13.1 ng/mL
  half-life: 25.9 ± 5.9 h
[1]; Control matched to Mild Impairment n = 8, read-out: Tmax (mean)
  Tmax: 5 ± 1.5 h
[1]; Control matched to Mild Impairment n = 8, read-out: Tmax, Median
  Tmax: 5 h
[1]; [6]
  AUC(0-inf): 809 ± 231 ng·h/mL
  AUC(0-t): 768 ± 229 ng·h/mL
  Cmax: 35.8 ± 10.7 ng/mL
  half-life: 25.4 ± 5.5 h
[1]; Control matched to Moderate Impairment n = 8, read-out: Tmax (mean)
  Tmax: 4.9 ± 0.84 h
[1]; Control matched to Moderate Impairment n = 8, read-out: Tmax, Median
  Tmax: 5 h
[1]; Mild Impairment n = 8
  AUC(0-inf): 1030 ± 506 ng·h/mL
  AUC(0-t): 984 ± 505 ng·h/mL
  Cmax: 44.1 ± 16.5 ng/mL
  half-life: 30.6 ± 8.2 h
[1]; Mild Impairment n = 8, read-out: Tmax (mean)
  Tmax: 4.6 ± 1.6 h
[1]; Mild Impairment n = 8, read-out: Tmax, Median
  Tmax: 4.5 h
[1]; Moderate Impairment n = 8
  AUC(0-inf): 727 ± 196 ng·h/mL
  AUC(0-t): 683 ± 190 ng·h/mL
  Cmax: 34.2 ± 8.2 ng/mL
  half-life: 29.4 ± 11.4 h
[1]; Moderate Impairment n = 8, read-out: Tmax (mean)
  Tmax: 4.1 ± 1.8 h
[1]; Moderate Impairment n = 8, read-out: Tmax, Median
  Tmax: 4 h
[1]; healthy participants and mild and moderate hepatic impairment, 20 mg single dose
  mean recovery of unchanged vilazodone in urine over 96 hours: ≤ 1.3 % of the dose
CYP3A4
  inhibitor or inducer of CYP3A4: not an inhibitor or inducer
[2]; [7]
  AUC0-t, Ratio of Geometric Means (%): 96.9%
  AUC0-∞, Ratio of Geometric Means (%): 95.8%
  Cmax, Ratio of Geometric Means (%): 75.2%
[2]; in vivo
  AUC(0-t): 642 ± 96.9 ng·h/mL
[2]; plasma
  AUC(0-t): 694 ± 262 ng·h/mL
[2]; [8]
  AUC(0-inf): 731 ± 267 ng·h/mL
  Cmax: 35 ± 11.8 ng/mL
[2]; [9]
  AUC(0-inf): 670 ± 94.8 ng·h/mL
  Cmax: 25.3 ± 3.8 ng/mL
[2]; plasma, Tmax (mean), Control matched to Severe Impairment n = 8
  Tmax: 4.2 ± 1.3 h
[2]; plasma, Tmax (mean), Severe Impairment n = 4 (who did not vomit)
  Tmax: 4.8 ± 2.2 h
[2]; plasma, Tmax, Median, Control matched to Severe Impairment n = 8
  Tmax: 4.5 h
[2]; plasma, Tmax, Median, Severe Impairment n = 4 (who did not vomit)
  Tmax: 4 h
[2]; plasma, t1/2, Control matched to Severe Impairment n = 8
  half-life: 30.1 ± 13.8 h
[2]; plasma, t1/2, Severe Impairment n = 4 (who did not vomit)
  half-life: 29.8 ± 4.8 h
[2]; severe hepatic impairment vs healthy controls, 20 mg single dose
  mean Cmax lower than in healthy controls: approximately 25%
[2]; severe impairment group
  Mean unbound drug clearance (CLu/F) lower vs matched controls: 33%
Serotonin reuptake site
  binding affinity to serotonin reuptake site: high affinity
Dopamine reuptake site
  binding to dopamine reuptake site: not

Source: patent publication US20150157575A1, “Pharmaceutical Formulations Comprising Vilazodone” (Forest Laboratories Holdings Ltd., priority 2013, published 2015)
